This is an account of results in ChEMBL document CHEMBL4765339, “Design, synthesis, and biological evaluation of 4-substituted-3,4-dihydrobenzo[h]quinoline-2,5,6(1H)-triones as NQO1-directed antitumor agents” (Eur J Med Chem, 2020).

Experiment [1] relates to HepG2. Nature of the experiment: Induction of cell cycle arrest in human HepG2 cells assessed as accumulation at S/G2 phase at 3 uM incubated for 24 hrs by PI staining based flow cytometry analysis (reference value: 35.2 %). The experiment is classed as functional. Background: In flow cytometry, cells or beads pass a laser one at a time.
The target of experiment [2] is NAD(P)H dehydrogenase [quinone] 1 (Homo sapiens) (UniProt P15559). The experiment in a line: Substrate activity at recombinant human C-terminal His-tagged NQO1 (1 to 274 residues) expressed in Escherichia coli assessed as enzyme activity by measuring oxidation of NADPH incubated for 5 mins measured every 5 sec for 1 mins by UV-visible spectrophotometry relative to beta-lapachone.

The test system of experiment [3] is A549. Nature of the experiment: Cytotoxicity against human A549 cells assessed as reduction in cell growth pretreated for 1 hr with ROS scavenger, N-acetyl cysteine followed by incubation with compound for 48 hrs by MTT assay. It is filed as functional.
Experiment [4] deals with HepG2. The experiment in a line: Antitumor activity against human HepG2 cells xenografted in athymic nude mouse assessed as inhibition of tumor growth at 20 mg/kg, iv administered once every 2 days for 19 days by caliper analysis relative to control. The experiment is classed as functional. The conditions noted are these: 456 h, time 19 day. (In general: Xenograft models place foreign cells or tissue in a host animal.)

The subject of experiment [5] is HepG2. Nature of the experiment: Induction of mitochondrial membrane potential loss in human HepG2 cells at 4.4 uM incubated for 48 hrs by JC-1 staining based flow cytometry analysis (reference value: 2.06 %). The experiment is classed as functional.
Experiment [6] in a line: Selectivity index, ratio of GI50 for human A549 cells pretreated for 1 hr with ROS scavenger, N-acetyl cysteine followed by incubation with compound for 48 hrs to GI50 for human A549 cells measured after 48 hrs by MTT assay. It is filed as functional. On the technique in general: Formazan colour is commonly taken as a measure of viable cells.
The subject of experiment [7] is HepG2. Nature of the experiment: Induction of ROS generation in human HepG2 cells at 5 uM incubated for 5 hrs in presence of dicoumarol by DCFH-DA staining based flow cytometry analysis. The experiment is classed as functional, cell-based.
The subject of experiment [8] is HepG2. The experiment in a line: Induction of apoptosis in human HepG2 cells assessed as late apoptotic cells at 2.2 uM incubated for 24 hrs in presence of dicoumarol by annexinV-FITC and PI staining based flow cytometry analysis (reference value: 2.27 %). It is filed as functional.
Experiment [9] relates to HepG2. Nature of the experiment: Induction of apoptosis in human HepG2 cells assessed as early apoptotic cells at 2.2 uM incubated for 24 hrs in presence of dicoumarol by annexinV-FITC and PI staining based flow cytometry analysis (reference value: 2.65 %). It is filed as functional.
In experiment [10] the test system is HepG2. Nature of the experiment: Cytotoxicity against human HepG2 cells assessed as reduction in cell growth incubated for 48 hrs by MTT assay. The experiment is classed as functional.
Experiment [11] concerns HepG2. Nature of the experiment: Induction of apoptosis in human HepG2 cells assessed as early apoptotic cells at 1.1 uM incubated for 24 hrs by annexinV-FITC and PI staining based flow cytometry analysis (reference value: 2.65 %). It is filed as functional.

Activity calls are given as the source filed them. The rule behind the calls is not given here. Some results are limits rather than exact numbers.

A word on the GI50: it is the concentration giving 50% growth inhibition. A word on the inhibition in vivo: it is the share of the control response that was lost under treatment.

In the case of `COc1ccc(C2CC(=O)NC3=C2C(=O)C(=O)c2ccccc23)cc1O` (stereo unspecified), the Activity in [1] is 41.4%; in experiment [5], 18.12%; in experiment [8] it was 9.46%; in experiment [9], 8.28%; in [11] it was 7.92%. Besides, the fold change (FC) in experiment [2] is above 2. Also, the results for the GI50 in experiment [3] and in [10] were 5.48 µM and 2.23 µM, respectively. Also, the inhibition in vivo at 20 mg/kg in [4] was 50.3%. Also, the RatioGI50 in [6] is 2. Also, in experiment [7], the result was inactive.
